Source: patent publication US10413532B2, “Pharmaceutical compositions containing a PDE4 inhibitor and a PI3 delta or dual PI3 delta-gamma kinase inhibitor” (Rhizen Pharmaceuticals SA, priority 2012, dated 2019)

System: macrophage and neutrophil infiltration
Assay: Acute cigarette smoke induced cell infiltration in male Balb/c mice
Assay type: in vivo
Details: acute CS, mouse
Description: Animals were acclimatized for seven days prior to the start of the experiment. Animals were randomly distributed to various groups based on their body weights. On day 1, mice were administered by test compound or vehicle by the oral route and after 30 mins test compound administration animals were placed in a whole body exposure box. The mice were exposed to the mainstream smoke of 6 cigarettes from day 1 to day 4. Exposure to the smoke of each cigarette lasted for 10 min (cigarettes were completely burned in the first two minutes and followed by an air flow with animal ventilator) followed by exposure for the next 20 min with fresh room air. After every second cigarette an additional break of 20 min with exposure to fresh room air was conducted. Control animals were exposed to the room air chamber. From day 1 to day 4 animals were administered test compound by the oral route. On day 5, 24 hours after the last cigarette smoke (CS) exposure. animals were exsanguinated under anaesthesia, and the trachea was cannulated and the lungs were lavaged with 0.5 ml aliquots of heparinised PBS (1 unit/ml) four times through a tracheal cannula (total volume 2 ml). Bronchioalveolar (BAL) collected was stored at 2-8° C. until assayed for total cell and differential leukocyte count. BAL fluid was centrifuged (500×g for 10 min) and the resulting cell pellet was resuspended in 0.5 ml of heparinised saline. The total number of white blood cells was determined in BAL fluid and blood using a blood cell counter and adjusted to 1×10^6 cell/ml. Differential cell count was calculated manually. Forty microliters of the cell suspension was centrifuged using cytospin 3 to prepare a cell smear. The cell smear was stained with a blood staining solution for differentiation and microscopically observed by identifying each cell according to its morphological characteristics. The number of each cell type among 300 white blood cells in the cell smear were determined and expressed as a percentage, and the number of neutrophils and macrophages in each BAL fluid were calculated.
The procedure for acute cigarette smoke induced cell infiltration in male Balb/c mice described in Example 1 was performed with Compound A1 and roflumilast

[1] = 3 mg/kg oral, dose-response study
[2] = combination study, alone at 3.5 mg/kg

Question: `O=C(Nc1c(Cl)cncc1Cl)c1ccc(OC(F)F)c(OCC2CC2)c1` [Compound A, roflumilast, reference compound] was tested. Which “percent inhibition of macrophage infiltration” value (1 mg/kg oral) did it give?
Answer: 22.2%

Question: And the “percent inhibition of neutrophil infiltration” value (1 mg/kg oral)?
Answer: 70.85%

Question: And the “percent inhibition of macrophage infiltration” value [1]?
Answer: 51.00%

Question: What about the “percent inhibition of neutrophil infiltration” value [1] of the same compound?
Answer: 73.69%

Question: And the “percent inhibition of macrophage infiltration” value (10 mg/kg oral)?
Answer: 69.11%

Question: And the “percent inhibition of neutrophil infiltration” value (10 mg/kg oral)?
Answer: 83.01%

Question: What about the ED50 (Macrophage, oral, read-out: 50% inhibition (ED50) dose, macrophage infiltration) of the same compound?
Answer: 3.5 mg/kg

Question: What about the “inhibition of macrophage infiltration” value [2] of the same compound?
Answer: 26.55%

Question: And the “inhibition of neutrophil infiltration” value [2]?
Answer: 44.42%
